From ChEMBL document CHEMBL5252568, “Rational design of HJH antimicrobial peptides to improve antimicrobial activity” (Bioorg Med Chem Lett, 2023)

Tests used:
Escherichia coli = test: Antimicrobial activity against Escherichia coli ATCC 25922 assessed as reduction in microbial growth; type: functional
Staphylococcus aureus = test: Antimicrobial activity against Staphylococcus aureus ATCC 29213 assessed as reduction in microbial growth; type: functional
Candida albicans = test: Antimicrobial activity against Candida albicans ATCC 90029 assessed as reduction in microbial growth; type: functional
HEK293 [1] = test: Cytotoxicity against human HEK293 cells assessed as reduction in cell viability at 1 to 128 uM relative to control; type: toxicity, cell-based; details: hek293, 128 µM, dose 1-128 µM
[2] = Hemolytic activity in human RBC assessed as hemolysis at 128 uM relative to control; type: toxicity, cell-based, Erythrocyte; details: red blood cells, read-out: Activity
HEK293 [3] = test: Cytotoxicity against human HEK293 cells assessed as reduction in cell viability at 128 uM relative to control; type: toxicity, cell-based; details: hek293, 128 µM
[4] = Stability in human serum assessed as compound remaining measured after 1 hr by RP-HPLC analysis; type: ADME, cell-free; details: read-out: Stability
[5] = Stability in human serum assessed as compound remaining measured after 3 hr by RP-HPLC analysis; type: ADME, cell-free; details: read-out: Stability
[6] = Hemolytic activity against human RBC assessed as concentration required to cause 10% hemolysis up to 256 uM relative to control; type: toxicity, cell-based; details: erythrocyte
HEK293 [7] = test: Cytotoxicity against human HEK293 cells assessed as reduction in cell viability up to 256 uM; type: toxicity, cell-based; details: hek293, 256 µM
[8] = Hemolytic activity in human RBC assessed as hemolysis at 2 uM relative to control; type: toxicity, cell-based, Erythrocyte; details: red blood cells, read-out: Activity

H-KLLKRKLLVLLR-OH
MIC (Escherichia coli): 12.5 µg/mL
MIC (Staphylococcus aureus): 3 µg/mL
MIC (Candida albicans): > 200 µg/mL

H-KKLLRLLKVLLR-OH
MIC (Escherichia coli): 1.5 µg/mL
MIC (Staphylococcus aureus): 1.5 µg/mL
MIC (Candida albicans): 50 µg/mL
Activity (HEK293 [1]): Toxic
hemolysis at 128 µM [2]: 35%
Activity (HEK293 [3]): 50%
remaining at 1 h [4]: 60%
remaining at 3 h [5]: < 9%

H-KLLKRKLLVTLR-OH
MIC (Escherichia coli): 25 µg/mL
MIC (Staphylococcus aureus): 6.25 µg/mL
MIC (Candida albicans): > 200 µg/mL
Activity [6]: Non-Toxic
Activity (HEK293 [7]): Non-Toxic

C[C@@H]1[C@H](O)[C@@H](C)/C=C/C=C/C=C/C=C/C=C/C=C/C=C/[C@H](O[C@@H]2O[C@H](C)[C@@H](O)[C@H](N)[C@@H]2O)C[C@@H]2O[C@](O)(C[C@@H](O)C[C@@H](O)[C@H](O)CC[C@@H](O)C[C@@H](O)CC(=O)O[C@H]1C)C[C@H](O)[C@H]2C(=O)O [AMPHOTERICIN B]
MIC (Escherichia coli): 0.4 µg/mL
MIC (Staphylococcus aureus): 0.4 µg/mL

H-KLLKHKLLVTLR-OH
MIC (Escherichia coli): 50 µg/mL
MIC (Staphylococcus aureus): 12.5 µg/mL
MIC (Candida albicans): > 200 µg/mL
Activity [6]: Non-Toxic
Activity (HEK293 [7]): Non-Toxic

OC(Cn1cncn1)(Cn1cncn1)c1ccc(F)cc1F [FLUCONAZOLE]
MIC (Candida albicans): 12.5 µg/mL

H-KLLKHKLLVTLA-OH
MIC (Escherichia coli): 50 µg/mL
MIC (Staphylococcus aureus): 50 µg/mL
MIC (Candida albicans): > 200 µg/mL
Activity [6]: Non-Toxic
Activity (HEK293 [7]): Non-Toxic
remaining at 3 h [5]: < 9%

H-KKLLKKLLRLLKVLLR-OH
MIC (Escherichia coli): 25 µg/mL
MIC (Staphylococcus aureus): 0.75 µg/mL
MIC (Candida albicans): 3 µg/mL
Activity (HEK293 [1]): Toxic
Activity (HEK293 [3]): 11%
hemolysis at 2 µM [8]: 90%
remaining at 1 h [4]: 60%
remaining at 3 h [5]: < 9%
